Laboratory results reported in patent US11629171B2, “Beta-hairpin peptidomimetics” (POLYPHOR AG, priority 2017, dated 2023).
Values after ≈ are worked out from the molar mass of the structure shown. Each block holds one compound with its values, some of them ahead of it. Where a SMILES comes first, the peptide text is derived from it. Bridges are numbered along the chain shown (N, C = ends). Roman numbers before positions name the chains, in order. [ ]: non-standard residue; d: D form. The star is where a group is joined. Thr(ol) = C[C@@H](O)[C@H](N)CO; Tle = CC(C)(C)[C@H](N)C(=O)O; Hiv = CC(C)[C@H](O)C(=O)O; dDab = NCC[C@@H](N)C(=O)O; hSer = N[C@@H](CCO)C(=O)O; Orn = NCCC[C@H](N)C(=O)O; Dab = NCC[C@H](N)C(=O)O; Dap = NC[C@H](N)C(=O)O; NHCH2CH2OH = OCCN*

Key:
Assay type in all cases: cell-based
[1] = system: Acinetobacter baumannii 872842; settings: 872842
Outline: (§1)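 Broth microdilution per CLSI; MH-II (cation-adjusted) + 0.002% P-80 final; ~10^6 CFU/mL inoculum; 2-fold peptide series; 35° C, 18-20 h; MIC = no visible growth, μg/mL.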

Escherichia coli 926415 = settings: 926415
Outline: as §1

[2] = system: Acinetobacter baumannii DSM 30008; settings: DSM 30008
Outline: as §1

[3] = system: Enterobacter cloacae 848840; settings: 848840
Outline: as §1

[4] = system: Klebsiella pneumoniae 968733; settings: 968733
Outline: as §1

[5] = system: Escherichia coli ATCC 25922; settings: ATCC 25922
Outline: as §1

[6] = system: Pseudomonas aeruginosa ATCC 27853; settings: ATCC 27853
Outline: as §1

[7] = system: Klebsiella pneumoniae SSI #3010; settings: SSI #3010
Outline: as §1

[8] = system: human red blood cells (hRBC); test: Hemolysis; settings: red cells of human, 1 h, 200
Outline: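 Washed fresh human RBC (20% v/v) incubated with peptide at 200 μg/mL for 1 h at 37° C with shaking. Supernatant OD540 measured after dilution, blank corrected; percent hemolysis = OD540 peptide / OD540 of 2% Triton X-100 lysis × 100, PBS with 10% water as 0%.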

SMILES: CC(C)C[C@@H]1NC(=O)[C@@H](CC(C)C)NC(=O)[C@H](CCN)NC(=O)[C@@H](NC(=O)[C@H](CCN)NC(=O)[C@@H](NC(=O)[C@H](CCN)NC(=O)CC[C@@H]2NC(=O)[C@@H](NC(=O)[C@H](Cc3ccc(O)cc3)NC(=O)[C@H](CCN)NC(=O)[C@@H](O)C(C)C)CSSC[C@@H](C(=O)N[C@H](C(=O)N[C@@H](CCC(=O)O)C(=O)N[C@H](CO)[C@@H](C)O)C(C)(C)C)NC(=O)[C@H](Cc3c[nH]c4ccccc34)NC(=O)[C@H]([C@@H](C)O)NC(=O)[C@@H](CCN)NC2=O)[C@@H](C)O)CCNC(=O)[C@H]([C@@H](C)O)NC(=O)[C@H](CCN)NC(=O)[C@H](CCN)NC1=O [Ex. 191] (I: H-[Hiv][Dab]YCE[dDab]TWC[Tle]E[Thr(ol)] / II: [Dab]T[Dab][Dab][Dab][dL]L[Dab][Dab]T; disulfide I:4-I:9; amide I:5-II:N; lactam II:4-II:C)
MIC [1]: 0.5 µg/mL (≈ 0.205 µM) | MIC (Escherichia coli 926415): 1 µg/mL (≈ 0.409 µM) | MIC [2]: 0.125 µg/mL (≈ 0.0512 µM) | MIC [3]: 0.5 µg/mL (≈ 0.205 µM) | MIC [4]: 2 µg/mL (≈ 0.819 µM) | MIC [5]: 0.125 µg/mL (≈ 0.0512 µM) | MIC [6]: 0.25 µg/mL (≈ 0.102 µM) | MIC [7]: 0.25 µg/mL (≈ 0.102 µM) | Hemolysis at 200 μg/mL [8]: 1%

SMILES: CC(=O)N[C@H](C(=O)N[C@H]1CCCNC(=O)[C@@H]([C@H](C)O)NC(=O)[C@H](C(C)(C)C)NC(=O)[C@H](CO)NC(=O)[C@H](Cc2c[nH]c3ccccc23)NC(=O)[C@H](CCO)NC(=O)[C@@H](CCN)NC(=O)[C@H](CCC(=O)N[C@@H](CCN)C(=O)N[C@H](C(=O)N[C@@H](CN)C(=O)N[C@H]2CCNC(=O)[C@H]([C@@H](C)O)NC(=O)[C@H](CCN)NC(=O)[C@H](CCN)NC(=O)[C@H](CC(C)C)NC(=O)[C@@H](CC(C)C)NC(=O)[C@H](CCN)NC2=O)[C@@H](C)O)NC(=O)[C@H](CCN)NC(=O)[C@H](Cc2ccc(O)cc2)NC1=O)C(C)C [Ex. 16] (I: Ac-V[Orn]Y[Dab]E[dDab][hSer]WS[Tle][dT] / II: [Dab]T[Dap][Dab][Dab][dL]L[Dab][Dab]T; lactam I:2-I:C, II:4-II:C; amide I:5-II:N)
MIC [1]: 0.25 µg/mL (≈ 0.107 µM) | MIC (Escherichia coli 926415): 0.25 µg/mL (≈ 0.107 µM) | MIC [2]: 0.0625 µg/mL (≈ 0.0268 µM) | MIC [3]: 0.25 µg/mL (≈ 0.107 µM) | MIC [4]: 0.125 µg/mL (≈ 0.0536 µM) | MIC [5]: 0.0625 µg/mL (≈ 0.0268 µM) | MIC [6]: 0.25 µg/mL (≈ 0.107 µM) | MIC [7]: 0.0625 µg/mL (≈ 0.0268 µM) | Hemolysis at 200 μg/mL [8]: <1%

SMILES: CC(C)C[C@@H]1NC(=O)[C@@H](CC(C)C)NC(=O)[C@H](CCN)NC(=O)[C@@H](NC(=O)[C@H](CCN)NC(=O)[C@@H](NC(=O)[C@H](CCN)NC(=O)CC[C@@H]2NC(=O)[C@@H](NC(=O)[C@H](Cc3ccc(O)cc3)NC(=O)[C@@H](NC(=O)[C@@H](N)C(C)C)[C@@H](C)O)CSSC[C@@H](C(=O)N[C@H](C(=O)N[C@@H](C)C(=O)N[C@@H](CO)C(=O)O)C(C)(C)C)NC(=O)[C@H](Cc3c[nH]c4ccccc34)NC(=O)[C@H]([C@@H](C)O)NC(=O)[C@@H](CCN)NC2=O)[C@@H](C)O)CCNC(=O)[C@H]([C@@H](C)O)NC(=O)[C@H](CCN)NC(=O)[C@H](CCN)NC1=O [Ex. 186] (I: H-VTYCE[dDab]TWC[Tle]AS-OH / II: [Dab]T[Dab][Dab][Dab][dL]L[Dab][Dab]T; disulfide I:4-I:9; amide I:5-II:N; lactam II:4-II:C)
MIC [1]: 0.25 µg/mL (≈ 0.105 µM) | MIC (Escherichia coli 926415): 1 µg/mL (≈ 0.419 µM) | MIC [2]: 0.0625 µg/mL (≈ 0.0262 µM) | MIC [3]: 0.25 µg/mL (≈ 0.105 µM) | MIC [4]: 8 µg/mL (≈ 3.35 µM) | MIC [5]: 0.125 µg/mL (≈ 0.0524 µM) | MIC [6]: 0.125 µg/mL (≈ 0.0524 µM) | MIC [7]: 0.125 µg/mL (≈ 0.0524 µM) | Hemolysis at 200 μg/mL [8]: <1%

SMILES: CC(C)C[C@@H]1NC(=O)[C@@H](CC(C)C)NC(=O)[C@H](CCN)NC(=O)[C@@H](NC(=O)[C@H](CCN)NC(=O)[C@@H](NC(=O)[C@H](CCN)NC(=O)CC[C@@H]2NC(=O)[C@H](CCN)NC(=O)[C@H]([C@@H](C)O)NC(=O)[C@@H](NC(=O)[C@@H](O)C(C)C)CSSC[C@@H](C(=O)N[C@@H](Cc3ccc(O)cc3)C(=O)NCCO)NC(=O)[C@H](C(C)(C)C)NC(=O)[C@H](CO)NC(=O)[C@H](Cc3c[nH]c4ccccc34)NC(=O)[C@H](CCO)NC(=O)[C@@H](CCN)NC2=O)[C@@H](C)O)CCNC(=O)[C@H]([C@@H](C)O)NC(=O)[C@H](CCN)NC(=O)[C@H](CCN)NC1=O [Ex. 70] (I: H-[Hiv]CT[Dab]E[dDab][hSer]WS[Tle]CY-NHCH2CH2OH / II: [Dab]T[Dab][Dab][Dab][dL]L[Dab][Dab]T; disulfide I:2-I:11; amide I:5-II:N; lactam II:4-II:C)
MIC [1]: 0.25 µg/mL (≈ 0.102 µM) | MIC (Escherichia coli 926415): 0.5 µg/mL (≈ 0.203 µM) | MIC [2]: 0.0625 µg/mL (≈ 0.0254 µM) | MIC [3]: 0.125 µg/mL (≈ 0.0509 µM) | MIC [4]: 0.25 µg/mL (≈ 0.102 µM) | MIC [5]: 0.125 µg/mL (≈ 0.0509 µM) | MIC [6]: 0.125 µg/mL (≈ 0.0509 µM) | MIC [7]: 0.125 µg/mL (≈ 0.0509 µM) | Hemolysis at 200 μg/mL [8]: <1%

More lines, main results first:

MIC [1]: 1 µg/mL (≈ 0.412 µM) | MIC (Escherichia coli 926415): 0.25 µg/mL (≈ 0.103 µM) | Acinetobacter baumannii DSM 30008 MIC [2]: 0.25 µg/mL | MIC [3]: 0.125 µg/mL (≈ 0.0515 µM) | MIC [4]: 2 µg/mL (≈ 0.824 µM) | Escherichia coli ATCC 25922 MIC [5]: 0.0625 µg/mL | Pseudomonas aeruginosa ATCC 27853 MIC [6]: 0.25 µg/mL | Klebsiella pneumoniae SSI #3010 MIC [7]: 0.0625 µg/mL
SMILES: CC(=O)N[C@@H](CC(C)C)C(=O)N[C@H]1CSSC[C@@H](C(=O)N[C@@H](CO)C(N)=O)NC(=O)[C@H](C(C)C)NC(=O)[C@H](CCN)NC(=O)[C@H](Cc2c[nH]c3ccccc23)NC(=O)[C@H](CO)NC(=O)[C@@H](CCN)NC(=O)[C@H](CCC(=O)N[C@@H](CCN)C(=O)N[C@H](C(=O)N[C@@H](CN)C(=O)N[C@H]2CCNC(=O)[C@H]([C@@H](C)O)NC(=O)[C@H](CCN)NC(=O)[C@H](CCN)NC(=O)[C@H](CC(C)C)NC(=O)[C@@H](CC(C)C)NC(=O)[C@H](CCN)NC2=O)[C@@H](C)O)NC(=O)[C@H](CCN)NC(=O)[C@H](Cc2ccc(O)cc2)NC1=O [Ex. 330] (I: Ac-LCY[Dab]E[dDab]SW[Dab]VCS-NH2 / II: [Dab]T[Dap][Dab][Dab][dL]L[Dab][Dab]T; disulfide I:2-I:11; amide I:5-II:N; lactam II:4-II:C)
Hemolysis at 200 μg/mL [8]: 1%

MIC [1]: 0.125 µg/mL (≈ 0.052 µM) | MIC (Escherichia coli 926415): 0.125 µg/mL (≈ 0.052 µM) | MIC [2]: 0.0625 µg/mL (≈ 0.026 µM) | MIC [3]: 0.5 µg/mL (≈ 0.208 µM) | MIC [4]: 0.25 µg/mL (≈ 0.104 µM) | MIC [5]: 0.0625 µg/mL (≈ 0.026 µM) | MIC [6]: 0.125 µg/mL (≈ 0.052 µM) | MIC [7]: 0.0625 µg/mL (≈ 0.026 µM)
SMILES: CC(=O)N[C@H](C(=O)N[C@H]1CCNC(=O)C[C@@H](C(=O)N[C@@H](CO)C(N)=O)NC(=O)[C@H](C(C)(C)C)NC(=O)[C@H](CO)NC(=O)[C@H](Cc2c[nH]c3ccccc23)NC(=O)[C@H](CCN)NC(=O)[C@@H](CCN)NC(=O)[C@H](CCC(=O)N[C@@H](CCN)C(=O)N[C@H](C(=O)N[C@@H](CN)C(=O)N[C@H]2CCNC(=O)[C@H]([C@@H](C)O)NC(=O)[C@H](CCN)NC(=O)[C@H](CCN)NC(=O)[C@H](CC(C)C)NC(=O)[C@@H](CC(C)C)NC(=O)[C@H](CCN)NC2=O)[C@@H](C)O)NC(=O)[C@H](CO)NC(=O)[C@H](Cc2ccc(O)cc2)NC1=O)C(C)C [Ex. 265] (I: Ac-V[Dab]YSE[dDab][Dab]WS[Tle]DS-NH2 / II: [Dab]T[Dap][Dab][Dab][dL]L[Dab][Dab]T; lactam I:2-I:11, II:4-II:C; amide I:5-II:N)
Hemolysis at 200 μg/mL [8]: <1%

MIC [1]: 4 µg/mL (≈ 1.52 µM) | MIC (Escherichia coli 926415): 2 µg/mL (≈ 0.762 µM) | MIC [2]: 0.5 µg/mL (≈ 0.191 µM) | MIC [3]: 2 µg/mL (≈ 0.762 µM) | MIC [4]: 4 µg/mL (≈ 1.52 µM) | MIC [5]: 0.25 µg/mL (≈ 0.0953 µM) | MIC [6]: 0.25 µg/mL (≈ 0.0953 µM) | MIC [7]: 0.25 µg/mL (≈ 0.0953 µM)
SMILES: CC(=O)N[C@@H](CCN)C(=O)N[C@H](C(=O)N[C@H]1CSSC[C@@H](C(=O)N[C@H](C(=O)N[C@@H](C)C(=O)N[C@H](C(=O)N[C@@H](CCC(=O)O)C(N)=O)C(C)C)C(C)(C)C)NC(=O)[C@H](Cc2c[nH]c3ccccc23)NC(=O)[C@H](CO)NC(=O)[C@@H](CCN)NC(=O)[C@H](CCC(=O)N[C@@H](CCN)C(=O)N[C@H](C(=O)N[C@@H](CN)C(=O)N[C@H]2CCNC(=O)[C@H]([C@@H](C)O)NC(=O)[C@H](CCN)NC(=O)[C@H](CCN)NC(=O)[C@H](CC(C)C)NC(=O)[C@@H](CC(C)C)NC(=O)[C@H](CCN)NC2=O)[C@@H](C)O)NC(=O)[C@H](CN)NC(=O)[C@H](Cc2ccc(O)cc2)NC1=O)C(C)C [Ex. 246] (I: Ac-[Dab]VCY[Dap]E[dDab]SWC[Tle]AVE-NH2 / II: [Dab]T[Dap][Dab][Dab][dL]L[Dab][Dab]T; disulfide I:3-I:10; amide I:6-II:N; lactam II:4-II:C)
Hemolysis at 200 μg/mL [8]: <1%
